In PMC5552954, “Regulation of Burkholderia cenocepacia biofilm formation by RpoN and the c‐di‐GMP effector BerB” (MicrobiologyOpen, 2017):

Tests used:
BerB = biological target: T1, BerB (Burkholderia cenocepacia, UniProt B4EHY3); experiment: SPR, steady-state affinity fit; type: binding; details: labelled compound; biotinylated c-di-GMP immobilised on chip, protein injected; HEPES buffer pH 7.4, 150 mmol/L NaCl, 0.05% Tween
T1 construct: gene BCAM1342; berB in pGEX-6P-2, expressed in E. coli Rosetta (DE3) pLysS as GST fusion, eluted with glutathione
T1 sequence (B4EHY3 entry or part of it): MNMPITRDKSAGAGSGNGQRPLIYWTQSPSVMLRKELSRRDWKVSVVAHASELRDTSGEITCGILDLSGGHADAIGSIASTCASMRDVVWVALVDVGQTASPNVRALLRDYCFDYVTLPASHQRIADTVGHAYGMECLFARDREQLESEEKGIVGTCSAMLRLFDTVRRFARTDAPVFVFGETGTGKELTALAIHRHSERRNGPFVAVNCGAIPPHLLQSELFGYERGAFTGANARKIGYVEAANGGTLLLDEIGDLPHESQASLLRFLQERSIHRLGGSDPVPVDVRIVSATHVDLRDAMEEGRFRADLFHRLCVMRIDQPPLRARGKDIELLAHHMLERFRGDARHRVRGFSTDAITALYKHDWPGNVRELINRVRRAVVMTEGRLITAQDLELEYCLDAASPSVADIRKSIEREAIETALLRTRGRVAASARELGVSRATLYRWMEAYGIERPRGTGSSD
Excerpt: SPR, steady-state affinity fit on BerB | BerB was able to bind to the biotinylated c‐di‐GMP in a concentration‐dependent manner

BerA = biological target: T2, BerA (Burkholderia cenocepacia, UniProt B4EIC5); experiment: SPR, steady-state affinity fit; type: binding; details: labelled compound; biotinylated c-di-GMP immobilised on chip, protein injected; PBS buffer pH 7.4; known binder as positive control
T2 construct: gene BCAM1349; berA in pGEX-6P-2, expressed in E. coli Rosetta (DE3) pLysS as GST fusion, eluted with glutathione
T2 sequence (B4EIC5 entry or part of it): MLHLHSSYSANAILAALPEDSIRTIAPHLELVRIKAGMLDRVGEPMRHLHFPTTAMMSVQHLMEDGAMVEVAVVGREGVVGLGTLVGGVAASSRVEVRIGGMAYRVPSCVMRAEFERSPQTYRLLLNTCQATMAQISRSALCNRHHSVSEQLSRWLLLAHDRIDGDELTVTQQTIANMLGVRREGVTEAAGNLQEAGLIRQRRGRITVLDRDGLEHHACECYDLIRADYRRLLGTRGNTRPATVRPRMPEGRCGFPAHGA

biotinylated c-di-GMP
Kd (BerB): ~3000 nM | Kd (BerA): ~3000 nM
